Assays:
[1] = Encapsulation efficiency of RNA (QUANT-IT RIBOGREEN RNA assay); type: physicochemical; conditions: Table 1A
Method in brief: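 RiboGreen fluorescence (ex ~480, em ~520 nm) compared between intact samples and Triton X-100-lysed samples after 15 min at 37 °C in TE buffer, pH 7.5. Percent free RNA is the blank-corrected intact/disrupted ratio.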

[2] = Lipid clearance: lipid level in mouse liver tissue (LC-MS/MS); type: in vivo; conditions: for % Remaining dose at 6 h / % Remaining dose at 24 h: Table 3E, mouse liver; for % Dose Remaining in Liver 6 h: Table 3D, intravenous
[3] = Apparent (surface) pKa of the LNP formulation (TNS assay); type: physicochemical; conditions: for pKa: Table 1A
Method in brief: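 LNP (0.04 mg/mL mRNA) mixed with TNS reagent in 21 buffers spanning about pH 3-12, in triplicate; fluorescence plotted against pH as sigmoidal curve. Apparent pKa taken as […] curve inflection point; validated in 1× PBS and 20 mM Tris w/8% sucrose.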

[4] = Particle size and polydispersity index of nanoparticle compositions (Zetasizer Nano ZS); type: physicochemical; conditions: Table 1A; for Size (nm): lipid:DSPC:cholesterol:PEG-DMG 50:10:38.5:1.5 mol %
Method in brief: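 Particle size and PDI were measured on a Zetasizer Nano ZS with the nanoparticle compositions dispersed in 1×PBS.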

[5] = test system: luciferase (Luc) mRNA; assay: Luc expression, whole body bioluminescence after intravenous administration to mice; type: in vivo; conditions: for 6 h BLI Lipid/MC3: Table 3E; for Lipid/MC3 AUC / AUC (p/s * h): Table 3D; for AUC (p/s * h): Luc; for Total Flux 3 hours / Total Flux 6 hours / Total Flux 24 hours: mice, i.v., 0.5 mg/kg, Luc mRNA
Method in brief: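 Luc mRNA nanoparticle formulations given intravenously to mice (n=6) at 0.5 mg/kg; whole-body bioluminescence imaged at 3, 6 and 24 h. CD-1 mice received IP D-luciferin (200 μL of 15 mg/mL) 15 min before imaging; total flux quantified by region of interest.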

[6] = test system: luciferase (Luc) mRNA; assay: Luc expression in liver, lung, spleen and femur 6 hours after intravenous administration; type: in vivo; conditions: mice, 0.5 mpk; for Total Flux Liver / Total Flux Lung / Total Flux Spleen: intravenous
Method in brief: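 LNP-formulated mRNA given IV to mice (n=3) at 0.5 mpk; at 6 h, bioluminescence imaged ex vivo 15 min after IP D-luciferin (15 mg/mL, 200 μL), organs imaged within 25 min. Values are total flux by region of interest.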

[7] = test system: luciferase (Luc) mRNA; assay: Luc expression (total flux) after intramuscular administration; type: in vivo, mice; conditions: Table 3H; intramuscular, Luc
Method in brief: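 Mice given a single intramuscular dose of lipid nanoparticle formulations carrying modified Luc mRNA, alone or with H10 mRNA, at 0.001 or 0.01 mpk total. Luciferase expression recorded as total flux.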

[8] = second column (head also says 6 h)

| EE (%) [1] [%] | % Remaining dose at 6 h [2] [%] | % Remaining dose at 24 h [2] [%] | pKa [3] | PDI [4] | Size (nm) [4] [nm] | % Dose Remaining in Liver 6 h [2, 8] [%] | % Dose Remaining in Liver 6 h [2] [%] | SMILES | 6 h BLI Lipid/MC3 ([5]; intravenous) | Total Flux Liver [6] | Total Flux Lung [6] | Total Flux Spleen [6] | Lipid/MC3 AUC ([5]; intravenous) | AUC (p/s * h) ([5]; intravenous) | Total Flux 3 hours [5] | Total Flux 6 hours [5] | Total Flux 24 hours [5] | other results |
| --- | --- | --- | --- | --- | --- | --- | --- | --- | --- | --- | --- | --- | --- | --- | --- | --- | --- | --- |
| 87.2 | 0.051 | 0 | 6.33 | 0.17 | 92.2 | – | – | CCCCCCCOC(=O)CCCCCCCCCN(CCO)CCCCCCCCCC(=O)OC(CCCCCC)CCCCCC [Compound 186, Heptyl 10-((2-hydroxyethyl)(10-oxo-10-(tridecan-7-yloxy)decyl)amino)decanoate] | 1.13 | – | – | – | – | – | – | – | – | – |
| 94.1 | 0.283 | 0 | 6.08 | 0.14 | 72.7 | – | – | CCCCCCCCC(CCCCCCCC)C(=O)OCCCCCCCN(CCO)C(C)CCCCCCCCOC(=O)CCCCCCC (stereo not drawn) [Compound 162, 7-((2-Hydroxyethyl)(10-(octanoyloxy)decan-2-yl)amino)heptyl 2-octyldecanoate] | 0.28 | – | – | – | – | – | – | – | – | – |
| 32.3 | 0.076 | 0 | 6.54 | 0.24 | 245.3 | – | – | CCCCCCCCCOC(=O)CCCCCCCN(CCO)CCCCCCCC(=O)OC(COCCCCCC)COCCCCCC [Compound 183, 1,3-Bis(hexyloxy)propan-2-yl 8-((2-hydroxyethyl)(8-(nonyloxy)-8-oxooctyl)amino)octanoate] | 0.031 | – | – | – | – | – | – | – | – | – |
| 98.3 | 33.8 | 29.3 | 6.77 | 0.14 | 69.6 | – | – | CCCCCCCCCCCOC(=O)CCCCCN(CCO)CCCCCC(=O)OC(CCCCCCCCCC)CCCCCCCCCC [Compound 185, Henicosan-11-yl 6-((2-hydroxyethyl)(6-oxo-6-(undecyloxy)hexyl)amino)hexanoate] | 0.87 | – | – | – | – | – | – | – | – | – |
| 95.4 | 17.4 | 3.24 | 6.40 | 0.13 | 77.3 | – | – | CCCCCCCCC(CCCCCCCC)OC(=O)CCCCCCCN(CCO)CCCCCCCC(=O)O[C@H](C)CCCCCCCC [Compound 172, (R)-Decan-2-yl 8-((8-(heptadecan-9-yloxy)-8-oxooctyl)(2-hydroxyethyl)amino)octanoate] | 1.72 | – | – | – | – | – | – | – | – | – |
| 85.0 | 51.0 | 35.5 | 6.48 | 0.14 | 100.5 | – | – | CCCCCCCCCC(C)(O)CCCCCCCCN(CCO)CCCCCCCC(=O)OC(CCCCCCCC)CCCCCCCC (stereo not drawn) [Compound 171, Heptadecan-9-yl 8-((9-hydroxy-9-methyloctadecyl)(2-hydroxyethyl)amino)octanoate] | 2.26 | – | – | – | – | – | – | – | – | – |

The remaining lines, values behind:

| SMILES | EE (%) [1] [%] | % Remaining dose at 6 h [2] [%] | % Remaining dose at 24 h [2] [%] | pKa [3] | PDI [4] | Size (nm) [4] [nm] | % Dose Remaining in Liver 6 h [2, 8] [%] | % Dose Remaining in Liver 6 h [2] [%] | 6 h BLI Lipid/MC3 ([5]; intravenous) | Total Flux Liver [6] | Total Flux Lung [6] | Total Flux Spleen [6] | Lipid/MC3 AUC ([5]; intravenous) | AUC (p/s * h) ([5]; intravenous) | Total Flux 3 hours [5] | Total Flux 6 hours [5] | Total Flux 24 hours [5] | other results |
| --- | --- | --- | --- | --- | --- | --- | --- | --- | --- | --- | --- | --- | --- | --- | --- | --- | --- | --- |
| CCCCCCCCC(CCCCCCCC)OC(=O)CCCCCCCN(C)CCCCCCCCCCCC(=O)OCCCCC [Compound 150, Pentyl 12-((8-(heptadecan-9-yloxy)-8-oxooctyl)(methyl)amino)dodecanoate] | 96.72 | – | – | 6.101 | 0.082 | 63.1 | <1 | <1 | – | 1.54E+09 | 2.20E+06 | 3.43E+07 | 1.4 | 2.704E+011 | 1.66E+10 | 2.31E+10 | 3.86E+08 | – |
| CCCCCCCCCOC(=O)CCCCCCCN(CCO)CCCCCCCCCC(CCCCCCCC)CCCCCCCC [Compound 153, Nonyl 8-((2-hydroxyethyl)(10-octyloctadecyl)amino)octanoate] | 98.39 | – | – | 6.580 | 0.150 | 83.7 | <1 | <1 | – | 1.18E+09 | 6.42E+06 | 1.42E+08 | 1.4 | 2.697E+011 | 1.69E+10 | 2.28E+10 | 5.10E+08 | – |
| CCCCCCCCC(CCCCCCCC)OC(=O)CCCCCCCN(CCO)C(C)CCCCCCCCOC(=O)CCCCCCC (stereo not drawn) [Compound 161, Heptadecan-9-yl 8-((2-hydroxyethyl)(10-(octanoyloxy)decan-2-yl)amino)octanoate] | 94.3 | 0.203 | 0 | 6.08 | 0.09 | 67.6 | – | – | 0.12 | – | – | – | – | – | – | – | – | – |
| CCCCCCCCCOC(=O)CCCCCCCN(CCCCCCCC(=O)OC(CCCCCCCC)CCCCCCCC)C(C)CO (stereo not drawn) [Compound 157, Heptadecan-9-yl 8-((1-hydroxypropan-2-yl)(8-(nonyloxy)-8-oxooctyl)amino)octanoate] | 96.04 | – | – | 6.275 | 0.093 | 61 | <1 | <1 | – | 2.27E+09 | 6.70E+06 | 5.15E+07 | 1.3 | 2.481E+011 | 8.54E+09 | 2.22E+10 | 1.90E+08 | AUC (p/s * h) [7]: 4.68E+08 p/s * h; Lipid/MC3 AUC [7]: 0.80; App. pKa ([3]; Table 3F): 6.27; Novel lipid/MC3 expression ratio, 6 hr. time point, i.v. ([5]; luciferase, intravenous, relative to MC3 formulation): 1.29 |
| CCCCCCCCCOC(=O)CCCCCCCN(CCO)CCCCCCCC(=O)OC(CCC1CC1CCCC)CCC1CC1CCCC (stereo not drawn) [Compound 160, 1,5-Bis(2-butylcyclopropyl)pentan-3-yl 8-((2-hydroxyethyl)(8-(nonyloxy)-8-oxooctyl)amino)octanoate] | 94.0 | 0.056 | 0 | 6.54 | 0.15 | 89.0 | – | – | 0.29 | – | – | – | – | – | – | – | – | – |
| CCCCCCCCC(CCCCCCCC)OC(=O)CCCCCCCN(CCO)CCCCCCCC(=O)OCC(CCCCCCC)OC (stereo not drawn) [Compound 148, Heptadecan-9-yl 8-((2-hydroxyethyl)(8-((2-methoxynonyl)oxy)-8-oxooctyl)amino)octanoate] | 25.49 | – | – | 6.646 | 0.200 | 192.7 | <1 | <1 | – | 4.39E+09 | 3.27E+07 | 2.71E+09 | 2.6 | 4.965E+011 | 6.28E+10 | 3.71E+10 | 1.43E+09 | Flux in the spleen ([6]; i.v., in words): highest |

From patent US12263248B2, “Compounds and compositions for intracellular delivery of therapeutic agents” (ModernaTX, Inc., priority 2018, dated 2025)
